# From patent US10631537B2, “Disinfectant composition having residual biocidal properties” (LONZA LLC, priority 2016, dated 2020)
# Assays:
# [1] = system: P. aeruginosa; experiment: Second screening: efficacy of dried film after abrasion (0 rub vs 12 dry rubs); type: cell-based; settings: active 0.4%, film PVOH, about 30 mg; for Log10 Reduction, 12 dry Rubs: no re-inoculation between rubs
# Method: (§1) First round of micro test was to evaluate the efficacy of the biocides against P. aeruginosa. About 30 mg of the biocide/polymer based formulation were coated on the one square inch area of a stainless steel coupon. The treated stainless steel coupons were left on the bench for air drying overnight. The dried stainless steel test samples were sent to a micro lab for efficacy testing against P. aeruginosa ATCC 15442 following a modified version of Residual Self-Sanitizing Activity on Hard, Non-Porous Surfaces (EPA Protocol #01-1A). […] Samples were inoculated with the test organism and held for a 5 minute contact time. Three replicates were tested for each sample. Second round of testing was to compare the efficacy after an abrasion process. About 30 mg of the test formulation was coated on the one square inch area of a stainless steel coupon. Samples were divided into two groups: one group had 0 rub, and the other group had 12 dry rubs. No re-inoculation was applied between rubs.
# [2] = system: P. aeruginosa ATCC 15442; experiment: First screening: residual self-sanitizing activity of dried film on stainless steel coupon, no wearing (modified EPA Protocol #01-1A); type: cell-based; settings: about 30 mg on one square inch, dried overnight, 5 minute contact time
# Method: as §1, with “sample.” for “sample. Second round of testing was to compare the efficacy after an abrasion process. About 30 mg of the test formulation was coated on the one square inch area of a stainless steel coupon. Samples were divided into two groups: one group had 0 rub, and the other group had 12 dry rubs. No re-inoculation was applied between rubs.”
# [3] = active concentration 0.4%, film PVOH
Molecule,"Log10 Reduction, 12 dry Rubs [1] [log10]","Log10 Reduction, No Rub [1] [log10]","Log reduction (with culture dilution), average ([2]; active concentration 1.0%, film PVOH) [log]","Log reduction (with culture dilution), average [2, 3] [log]","Log reduction (with culture dilution), average ([2]; active concentration 0.4%, film PVP) [log]"
N=C(NCCCCCCNC(=N)NC(=N)Nc1ccc(Cl)cc1)NC(=N)Nc1ccc(Cl)cc1 [Chlorhexidine digluconate],5.04,5.42,≥4.85,,
Alkyldimethyl benzyl ammonium chlorides,3.48,3.56,,3.85,
"CCCCCCCCCCCCN(CCCN)CCCN [N,N-bis(3-aminopropyl) dodecylamine, N,N-bis(3-aminopropyl)dodecylamine]",4.77,5.22,,≥4.85,4.05
